Experimental data published in ChEMBL document CHEMBL1155004, “Antiprion activity of functionalized 9-aminoacridines related to quinacrine” (Bioorg Med Chem, 2008).

Assays:
[1] = Antiprion activity against scrapie prion protein RML infected mouse ScN2a cells assessed as reduction of scrapie prion protein accumulation by immunoblot analysis; assay type: cell-based
[2] = Cytotoxicity against mouse ScN2a cells assessed as maximal tolerant concentration; assay type: cell-based; conditions: read-out: Activity
[3] = Selectivity index, ratio of maximal tolerant concentration for mouse ScN2a cells to EC50 for scrapie prion protein RML infected mouse ScN2a cells
[4] = tested on: Ch2; assay: Antiprion activity against scrapie prion protein RML infected mouse Ch2 cells assessed as drug level required for more than 99 percent reduction of scrapie prion protein; assay type: cell-based
[5] = Antiprion activity against scrapie prion protein 22L infected mouse N167 cells assessed as reduction of scrapie prion protein accumulation; assay type: cell-based
[6] = Antiprion activity against scrapie prion protein RML infected mouse Ch2 cells assessed as reduction of scrapie prion protein accumulation; assay type: cell-based
[7] = Antiprion activity against human prion Fukuoka-1 infected mouse F3 cells assessed as reduction of scrapie prion protein accumulation; assay type: cell-based; conditions: N2a #58 F3
[8] = tested on: ScN2a; assay: Antiprion activity against scrapie prion protein RML infected mouse ScN2a cells assessed as drug level required for more than 99 percent reduction of scrapie prion protein by immunoblot analysis; assay type: cell-based
[9] = tested on: N167; assay: Antiprion activity against scrapie prion protein 22L infected mouse N167 cells assessed as drug level required for more than 99 percent reduction of scrapie prion protein; assay type: cell-based
[10] = tested on: N2a #58 F3; assay: Antiprion activity against human prion Fukuoka-1 infected mouse F3 cells assessed as drug level required for more than 99 percent reduction of scrapie prion protein; assay type: cell-based

SMILES | EC50 [1] | MNTC [2] | Selectivity Index [3] | Activity [4] | EC50 [5] | EC50 [6] | EC50 [7] | Activity [8] | Activity [9] | Activity [10]
COc1ccc2nc3cc(Cl)ccc3c(Nc3cccc(N4CCOCC4)c3)c2c1 | 900 nM | 3000 nM | 3 | – | – | – | – | – | – | –
CCN(CC)CCCC(C)Nc1c2ccc(Cl)cc2nc2ccc(OC)cc12 (stereo not given) [QUINACRINE] | 230 nM | 2500 nM | 11 | 2 µM | 590 nM | 460 nM | 1880 nM | 0.8 µM | – | –
CCN(CC)CCCCNc1c2ccc(Cl)cc2nc2ccc(OC)cc12 | 150 nM | 1000 nM | 7 | – | – | – | – | 0.4 µM | – | –
COc1ccc2nc3cc(Cl)ccc3c(Nc3ccc(N(C)C)cc3)c2c1 | 510 nM | 2000 nM | 4 | – | – | – | – | – | – | –
COc1ccc2nc3cc(Cl)ccc3c(Nc3ccccc3N(C)C)c2c1 | 250 nM | 5000 nM | 20 | – | – | – | – | 0.8 µM | – | –
CCN(CC)c1cccc(Nc2c3ccc(Cl)cc3nc3ccc(OC)cc23)c1 | 1010 nM | 3000 nM | 3 | – | – | – | – | 2.5 µM | – | –
COc1ccc2nc3cc(Cl)ccc3c(Nc3cccc(N(C)C)c3)c2c1 | 320 nM | 2000 nM | 6 | – | – | – | – | – | – | –
COc1ccc2nc3cc(Cl)ccc3c(Nc3cccc(N4CCCC4)c3)c2c1 | 1060 nM | 2000 nM | 2 | – | – | – | – | – | – | –
COc1ccc2nc3cc(Cl)ccc3c(Nc3ccc(N4CCCCC4)cc3)c2c1 | 4240 nM | 9000 nM | 2 | – | 4290 nM | – | – | 7 µM | – | –
COc1ccc2nc3cc(Cl)ccc3c(NC3CCN(Cc4ccccc4)CC3)c2c1 | 420 nM | 2000 nM | 5 | 1 µM | 490 nM | 410 nM | 800 nM | 1 µM | 1.5 µM | –
COc1ccc2nc3cc(Cl)ccc3c(N3CCN(C)CC3)c2c1 | 360 nM | 4000 nM | 11 | – | – | > 2000 nM | – | 1.8 µM | – | –
Nc1c2ccccc2nc2ccccc12 [AMINACRINE] | – | 2500 nM | – | – | – | – | – | – | – | –
COc1ccc2nc3cc(Cl)ccc3c(NCCCN(C)C)c2c1 | 110 nM | 1000 nM | 9 | – | – | – | – | 0.3 µM | – | –
COc1ccc2nc3cc(Cl)ccc3c(Nc3cccc(N4CCCCC4)c3)c2c1 | 180 nM | 4000 nM | 22 | – | – | – | – | 0.5 µM | – | –
CCN(CC)c1ccc(Nc2c3ccccc3nc3ccccc23)cc1 | 240 nM | 400 nM | 2 | – | – | – | – | – | – | –
CCN(CC)CCNc1c2ccc(Cl)cc2nc2ccc(OC)cc12 | 21 nM | 4000 nM | 190 | 3 µM | – | 700 nM | – | 0.1 µM | – | –
COc1ccc2nc3cc(Cl)ccc3c(N)c2c1 | 130 nM | 4000 nM | 30 | – | – | – | – | 0.4 µM | – | –
COc1ccc2nc3cc(Cl)ccc3c(Nc3cccc(N4CCN(C)CC4)c3)c2c1 | 290 nM | 4000 nM | 14 | 1.5 µM | 1190 nM | 380 nM | 1490 nM | 1 µM | 3 µM | 3.5 µM
COc1ccc2nc3cc(Cl)ccc3c(Nc3ccc(N4CCOCC4)cc3)c2c1 | 1280 nM | 4000 nM | 3 | – | – | – | – | 3 µM | – | –
CCN(CC)CCCNc1c2ccc(Cl)cc2nc2ccc(OC)cc12 | 140 nM | 1000 nM | 7 | – | – | – | – | 0.3 µM | – | –
CCN(CC)c1ccc(Nc2c3ccc(Cl)cc3nc3ccc(OC)cc23)cc1 | 480 nM | 2000 nM | 4 | – | – | – | – | 1.5 µM | – | –
COc1ccc2nc3cc(Cl)ccc3c(Nc3ccc(N4CCN(C)CC4)cc3)c2c1 | 100 nM | 2500 nM | 25 | 1.2 µM | 420 nM | 220 nM | 680 nM | 0.4 µM | 1.5 µM | 1.5 µM
